Columns and labels:
Assay in all cases: KAM-matrix competition in K562 lysate;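 as to 0.001 uM KAM: median log10 fold change of treatment over DMSO control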;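 as to 0.01 uM KAM: median log10 fold change of treatment over DMSO control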;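 as to 0.1 uM KAM: median log10 fold change of treatment over DMSO control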;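 as to 1 uM KAM: median log10 fold change of treatment over DMSO control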;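 as to 10 uM KAM: median log10 fold change of treatment over DMSO control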
Type in all cases: binding
NME3 = biological target: T1, NME3 (Homo sapiens, UniProt Q13232);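 as to 0.001 uM KAM: median log10 fold change of treatment over DMSO control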;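 as to 0.01 uM KAM: median log10 fold change of treatment over DMSO control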;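 as to 0.1 uM KAM: median log10 fold change of treatment over DMSO control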;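 as to 1 uM KAM: median log10 fold change of treatment over DMSO control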;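 as to 10 uM KAM: median log10 fold change of treatment over DMSO control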
T1 construct: endogenous in cells; host or cells: K562
T1 sequence (Q13232 1-169): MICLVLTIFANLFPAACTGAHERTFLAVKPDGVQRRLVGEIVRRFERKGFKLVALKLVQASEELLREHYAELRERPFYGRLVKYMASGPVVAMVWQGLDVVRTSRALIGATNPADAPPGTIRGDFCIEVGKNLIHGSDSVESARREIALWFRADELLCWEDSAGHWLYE
Description: (§1) Supplement 12953_2017_125_MOESM1_ESM.zip/MS_Supp Info.xlsx, sheet "KAM" | column: 10 uM KAM; 1 uM KAM; 0.1 uM KAM; 0.01 uM KAM; 0.001 uM KAM; RB50

NEK8 = biological target: T2, NEK8 (Homo sapiens, UniProt Q86SG6)
T2 construct: endogenous in cells; host or cells: K562
T2 sequence (Q86SG6 1-692): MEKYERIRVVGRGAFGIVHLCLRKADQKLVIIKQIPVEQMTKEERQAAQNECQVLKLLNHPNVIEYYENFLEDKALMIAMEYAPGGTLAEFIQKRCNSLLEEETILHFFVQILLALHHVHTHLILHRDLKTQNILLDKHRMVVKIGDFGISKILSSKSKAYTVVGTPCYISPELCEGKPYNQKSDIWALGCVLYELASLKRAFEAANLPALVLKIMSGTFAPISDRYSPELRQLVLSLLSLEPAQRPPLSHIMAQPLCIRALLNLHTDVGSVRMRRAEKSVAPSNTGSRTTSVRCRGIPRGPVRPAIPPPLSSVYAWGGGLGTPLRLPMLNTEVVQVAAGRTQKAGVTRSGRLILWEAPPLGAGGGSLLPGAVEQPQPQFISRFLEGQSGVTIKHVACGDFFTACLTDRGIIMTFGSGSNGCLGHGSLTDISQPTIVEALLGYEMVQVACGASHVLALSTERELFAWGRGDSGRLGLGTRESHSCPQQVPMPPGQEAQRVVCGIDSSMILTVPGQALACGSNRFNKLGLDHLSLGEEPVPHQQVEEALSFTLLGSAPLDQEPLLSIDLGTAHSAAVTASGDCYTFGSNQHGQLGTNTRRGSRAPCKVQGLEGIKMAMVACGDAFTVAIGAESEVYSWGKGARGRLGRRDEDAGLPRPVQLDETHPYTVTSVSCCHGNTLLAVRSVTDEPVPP
Description: as §1

MAPKAPK2 = biological target: T3, MAPKAPK2 (Homo sapiens, UniProt P49137);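 as to 0.001 uM KAM: median log10 fold change of treatment over DMSO control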;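 as to 0.01 uM KAM: median log10 fold change of treatment over DMSO control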;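 as to 0.1 uM KAM: median log10 fold change of treatment over DMSO control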;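 as to 1 uM KAM: median log10 fold change of treatment over DMSO control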;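 as to 10 uM KAM: median log10 fold change of treatment over DMSO control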
T3 construct: endogenous in cells; host or cells: K562
Description: as §1

PIK3R4 = biological target: T4, PIK3R4 (Homo sapiens, UniProt Q99570);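 as to 0.001 uM KAM: median log10 fold change of treatment over DMSO control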;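 as to 0.01 uM KAM: median log10 fold change of treatment over DMSO control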;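 as to 0.1 uM KAM: median log10 fold change of treatment over DMSO control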;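 as to 1 uM KAM: median log10 fold change of treatment over DMSO control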;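 as to 10 uM KAM: median log10 fold change of treatment over DMSO control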
T4 construct: endogenous in cells; host or cells: K562
Description: as §1

LIMK1 = LIMK1 (Homo sapiens, UniProt P53667);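 as to 0.001 uM KAM: median log10 fold change of treatment over DMSO control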;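 as to 0.01 uM KAM: median log10 fold change of treatment over DMSO control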;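 as to 0.1 uM KAM: median log10 fold change of treatment over DMSO control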;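 as to 1 uM KAM: median log10 fold change of treatment over DMSO control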;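 as to 10 uM KAM: median log10 fold change of treatment over DMSO control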
Description: as §1

CHEK1 = biological target: T5, CHEK1 (Homo sapiens, UniProt O14757)
T5 construct: endogenous in cells; host or cells: K562
T5 sequence (O14757 1-476): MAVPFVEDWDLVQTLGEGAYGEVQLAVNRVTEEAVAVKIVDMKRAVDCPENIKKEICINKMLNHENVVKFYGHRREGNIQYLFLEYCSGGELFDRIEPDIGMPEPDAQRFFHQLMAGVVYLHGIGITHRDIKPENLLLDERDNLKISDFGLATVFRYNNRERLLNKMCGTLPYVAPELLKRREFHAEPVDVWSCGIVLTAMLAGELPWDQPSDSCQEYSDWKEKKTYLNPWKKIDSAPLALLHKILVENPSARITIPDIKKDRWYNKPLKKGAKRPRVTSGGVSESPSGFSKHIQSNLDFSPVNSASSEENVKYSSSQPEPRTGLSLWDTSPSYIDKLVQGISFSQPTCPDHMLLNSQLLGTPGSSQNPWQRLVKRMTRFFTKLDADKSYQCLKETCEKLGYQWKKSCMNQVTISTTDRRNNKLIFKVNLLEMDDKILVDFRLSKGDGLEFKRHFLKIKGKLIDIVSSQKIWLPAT
Description: as §1

ACVR2B = biological target: T6, ACVR2B (Homo sapiens, UniProt Q13705);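 as to 0.001 uM KAM: median log10 fold change of treatment over DMSO control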;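 as to 0.01 uM KAM: median log10 fold change of treatment over DMSO control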;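 as to 0.1 uM KAM: median log10 fold change of treatment over DMSO control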;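 as to 1 uM KAM: median log10 fold change of treatment over DMSO control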;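 as to 10 uM KAM: median log10 fold change of treatment over DMSO control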
T6 construct: endogenous in cells; host or cells: K562 cell lysate
Description: as §1

KIT = biological target: T7, KIT (Homo sapiens, UniProt P10721);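 as to 0.001 uM KAM: median log10 fold change of treatment over DMSO control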;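 as to 0.01 uM KAM: median log10 fold change of treatment over DMSO control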;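 as to 0.1 uM KAM: median log10 fold change of treatment over DMSO control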;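 as to 1 uM KAM: median log10 fold change of treatment over DMSO control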;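 as to 10 uM KAM: median log10 fold change of treatment over DMSO control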
T7 construct: endogenous in cells; host or cells: K562 cells (combined S0.8 and P0.8 lysate)
Description: as §1

CAMK2D = biological target: T8, CAMK2D (Homo sapiens, UniProt Q13557);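 as to 0.001 uM KAM: median log10 fold change of treatment over DMSO control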;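 as to 0.01 uM KAM: median log10 fold change of treatment over DMSO control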;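 as to 0.1 uM KAM: median log10 fold change of treatment over DMSO control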;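 as to 1 uM KAM: median log10 fold change of treatment over DMSO control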;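 as to 10 uM KAM: median log10 fold change of treatment over DMSO control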
T8 construct: endogenous in cells; host or cells: K562
Description: as §1

PTK2B = biological target: T9, PTK2B (Homo sapiens, UniProt Q14289)
T9 construct: endogenous in cells; host or cells: K562
Description: as §1

[1] = KAM 0.001-10 uM, read-out: RB50 (the source's name)
[2] = read-out: RB50 (the source's name)

T6 sequence (Q13705 19-512): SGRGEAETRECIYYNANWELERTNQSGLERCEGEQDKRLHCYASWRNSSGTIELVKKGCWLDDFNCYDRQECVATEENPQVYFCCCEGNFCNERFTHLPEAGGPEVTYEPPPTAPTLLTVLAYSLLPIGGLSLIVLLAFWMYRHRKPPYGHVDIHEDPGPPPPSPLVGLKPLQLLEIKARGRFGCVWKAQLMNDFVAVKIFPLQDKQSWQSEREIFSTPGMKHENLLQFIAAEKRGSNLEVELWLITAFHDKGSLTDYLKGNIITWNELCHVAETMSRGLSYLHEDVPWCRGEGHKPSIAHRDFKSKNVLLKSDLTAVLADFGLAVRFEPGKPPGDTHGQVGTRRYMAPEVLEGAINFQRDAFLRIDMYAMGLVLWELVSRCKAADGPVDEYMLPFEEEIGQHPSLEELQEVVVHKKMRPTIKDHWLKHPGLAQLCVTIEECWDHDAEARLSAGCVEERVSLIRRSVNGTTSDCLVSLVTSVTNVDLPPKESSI
T7 sequence (P10721 26-976): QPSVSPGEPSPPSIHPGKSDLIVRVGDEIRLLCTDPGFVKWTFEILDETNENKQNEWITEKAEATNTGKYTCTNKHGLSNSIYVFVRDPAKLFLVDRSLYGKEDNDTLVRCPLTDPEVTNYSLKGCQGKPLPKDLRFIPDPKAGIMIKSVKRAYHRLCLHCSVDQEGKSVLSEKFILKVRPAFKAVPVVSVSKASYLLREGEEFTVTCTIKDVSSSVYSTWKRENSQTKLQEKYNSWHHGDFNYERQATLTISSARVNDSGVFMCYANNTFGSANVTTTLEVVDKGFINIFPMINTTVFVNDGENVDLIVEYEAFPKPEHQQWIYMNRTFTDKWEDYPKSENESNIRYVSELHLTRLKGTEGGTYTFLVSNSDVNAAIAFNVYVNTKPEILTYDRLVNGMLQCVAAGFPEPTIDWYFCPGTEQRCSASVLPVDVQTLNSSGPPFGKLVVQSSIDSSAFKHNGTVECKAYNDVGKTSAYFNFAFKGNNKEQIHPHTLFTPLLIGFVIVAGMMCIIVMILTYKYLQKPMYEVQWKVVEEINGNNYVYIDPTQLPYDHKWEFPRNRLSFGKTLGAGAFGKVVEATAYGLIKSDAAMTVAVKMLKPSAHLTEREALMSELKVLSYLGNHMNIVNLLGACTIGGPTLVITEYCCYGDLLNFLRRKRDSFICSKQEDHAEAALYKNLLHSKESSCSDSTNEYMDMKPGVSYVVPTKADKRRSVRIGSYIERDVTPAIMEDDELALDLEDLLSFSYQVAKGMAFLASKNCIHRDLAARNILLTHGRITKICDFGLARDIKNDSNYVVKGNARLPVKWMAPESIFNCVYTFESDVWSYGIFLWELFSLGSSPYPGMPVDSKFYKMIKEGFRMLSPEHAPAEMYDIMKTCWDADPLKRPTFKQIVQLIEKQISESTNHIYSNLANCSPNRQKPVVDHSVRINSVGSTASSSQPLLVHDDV
T8 sequence (Q13557 whole entry): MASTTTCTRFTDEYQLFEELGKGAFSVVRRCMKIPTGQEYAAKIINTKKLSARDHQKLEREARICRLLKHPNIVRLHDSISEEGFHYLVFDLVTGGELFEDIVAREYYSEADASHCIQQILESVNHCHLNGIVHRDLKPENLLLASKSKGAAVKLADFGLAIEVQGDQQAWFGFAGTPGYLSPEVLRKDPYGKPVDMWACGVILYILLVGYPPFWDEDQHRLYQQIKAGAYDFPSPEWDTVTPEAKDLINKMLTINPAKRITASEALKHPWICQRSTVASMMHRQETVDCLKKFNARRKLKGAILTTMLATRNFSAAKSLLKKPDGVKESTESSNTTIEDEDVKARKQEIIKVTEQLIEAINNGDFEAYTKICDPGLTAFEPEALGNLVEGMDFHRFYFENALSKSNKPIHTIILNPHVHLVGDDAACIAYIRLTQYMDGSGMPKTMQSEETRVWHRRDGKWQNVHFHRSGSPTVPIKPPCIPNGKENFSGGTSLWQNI
LIMK1, sequence (P53667 whole entry): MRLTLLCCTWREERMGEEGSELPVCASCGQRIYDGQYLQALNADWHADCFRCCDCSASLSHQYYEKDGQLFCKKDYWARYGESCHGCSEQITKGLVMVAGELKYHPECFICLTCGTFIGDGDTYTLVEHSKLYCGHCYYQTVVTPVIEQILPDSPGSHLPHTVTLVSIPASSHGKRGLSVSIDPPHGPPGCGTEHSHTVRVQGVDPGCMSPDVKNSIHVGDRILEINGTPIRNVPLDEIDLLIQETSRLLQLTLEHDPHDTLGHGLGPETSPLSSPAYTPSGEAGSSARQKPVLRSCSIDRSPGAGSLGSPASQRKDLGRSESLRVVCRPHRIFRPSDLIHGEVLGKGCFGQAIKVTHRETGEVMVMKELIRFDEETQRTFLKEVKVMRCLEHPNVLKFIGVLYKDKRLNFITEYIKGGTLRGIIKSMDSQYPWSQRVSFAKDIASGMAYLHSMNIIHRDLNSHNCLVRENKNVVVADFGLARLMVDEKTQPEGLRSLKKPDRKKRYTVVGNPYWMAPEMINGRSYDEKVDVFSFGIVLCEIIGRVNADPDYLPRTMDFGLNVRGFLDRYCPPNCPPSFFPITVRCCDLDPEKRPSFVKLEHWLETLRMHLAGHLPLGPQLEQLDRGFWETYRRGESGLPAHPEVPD
T3 sequence (P49137 whole entry): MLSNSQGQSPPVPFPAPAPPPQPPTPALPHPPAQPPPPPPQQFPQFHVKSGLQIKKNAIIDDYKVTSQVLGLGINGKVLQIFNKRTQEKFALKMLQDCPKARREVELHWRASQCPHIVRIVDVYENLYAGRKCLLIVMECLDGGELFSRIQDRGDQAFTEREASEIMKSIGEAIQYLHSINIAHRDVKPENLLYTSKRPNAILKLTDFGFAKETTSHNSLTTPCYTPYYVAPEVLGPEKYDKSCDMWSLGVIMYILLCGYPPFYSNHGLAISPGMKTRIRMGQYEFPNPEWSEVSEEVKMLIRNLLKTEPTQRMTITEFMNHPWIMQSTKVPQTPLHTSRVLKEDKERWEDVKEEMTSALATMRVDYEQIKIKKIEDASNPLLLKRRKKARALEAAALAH
T9 sequence (Q14289 whole entry): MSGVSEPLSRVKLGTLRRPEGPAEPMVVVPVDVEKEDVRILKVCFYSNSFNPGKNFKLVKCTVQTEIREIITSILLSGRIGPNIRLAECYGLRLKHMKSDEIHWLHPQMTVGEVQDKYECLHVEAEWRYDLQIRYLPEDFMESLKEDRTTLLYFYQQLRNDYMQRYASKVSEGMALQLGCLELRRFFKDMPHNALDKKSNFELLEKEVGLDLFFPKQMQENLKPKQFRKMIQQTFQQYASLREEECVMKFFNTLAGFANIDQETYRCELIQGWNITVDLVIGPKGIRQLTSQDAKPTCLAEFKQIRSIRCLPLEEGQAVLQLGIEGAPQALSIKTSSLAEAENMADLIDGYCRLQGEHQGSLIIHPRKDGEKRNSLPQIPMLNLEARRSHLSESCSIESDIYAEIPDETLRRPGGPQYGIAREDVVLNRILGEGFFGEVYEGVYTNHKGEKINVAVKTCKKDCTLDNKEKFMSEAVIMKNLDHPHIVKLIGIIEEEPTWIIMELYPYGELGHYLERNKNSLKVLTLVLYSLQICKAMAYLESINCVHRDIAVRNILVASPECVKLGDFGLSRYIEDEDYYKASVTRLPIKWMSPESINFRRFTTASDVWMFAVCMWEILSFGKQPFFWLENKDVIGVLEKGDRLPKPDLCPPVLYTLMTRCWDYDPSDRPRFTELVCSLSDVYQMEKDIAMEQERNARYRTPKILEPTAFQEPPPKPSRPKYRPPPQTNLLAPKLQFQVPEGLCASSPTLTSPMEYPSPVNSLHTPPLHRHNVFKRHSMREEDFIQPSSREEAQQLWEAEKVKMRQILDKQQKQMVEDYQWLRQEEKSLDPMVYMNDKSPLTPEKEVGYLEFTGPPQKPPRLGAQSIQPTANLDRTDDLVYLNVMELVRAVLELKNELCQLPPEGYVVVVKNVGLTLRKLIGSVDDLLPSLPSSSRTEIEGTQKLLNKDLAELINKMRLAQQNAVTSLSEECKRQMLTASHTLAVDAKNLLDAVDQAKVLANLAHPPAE

SMILES: N#CCc1ccc(Nc2nc(NCCCN)cc(Nc3cc(C4CC4)[nH]n3)n2)cc1 [KAM]
- IC50 (NME3; [1]): > 10 µM
- 0.001 uM KAM (NME3; relative to 0 uM KAM = 0): -0.01588
- 0.01 uM KAM (NME3; relative to 0 uM KAM = 0): -0.01222
- 0.1 uM KAM (NME3; relative to 0 uM KAM = 0): -0.05319
- 1 uM KAM (NME3; relative to 0 uM KAM = 0): 0.05076
- 10 uM KAM (NME3; relative to 0 uM KAM = 0): 0.01706
- median Log10 fold change (NEK8; 0.001 uM KAM): -0.1269
- median Log10 fold change (NEK8; 0.01 uM KAM): -0.1123
- median Log10 fold change (NEK8; 0.1 uM KAM): -0.2566
- median Log10 fold change (NEK8; 1 uM KAM): -0.2815
- median Log10 fold change (NEK8; 10 uM KAM): -0.455
- IC50 (NEK8; [2]): 0.861 µM
- IC50 (MAPKAPK2; [1]): > 10 µM
- 0.001 uM KAM (MAPKAPK2; relative to 0 uM KAM = 0): 0.05207
- 0.01 uM KAM (MAPKAPK2; relative to 0 uM KAM = 0): -0.01973
- 0.1 uM KAM (MAPKAPK2; relative to 0 uM KAM = 0): 0.02471
- 1 uM KAM (MAPKAPK2; relative to 0 uM KAM = 0): 0.08157
- 10 uM KAM (MAPKAPK2; relative to 0 uM KAM = 0): 0.02045
- IC50 (PIK3R4; [1]): > 10 µM
- 0.001 uM KAM (PIK3R4; relative to 0 uM KAM = 0): -0.04609
- 0.01 uM KAM (PIK3R4; relative to 0 uM KAM = 0): 0.02295
- 0.1 uM KAM (PIK3R4; relative to 0 uM KAM = 0): -0.02338
- 1 uM KAM (PIK3R4; relative to 0 uM KAM = 0): -0.03171
- 10 uM KAM (PIK3R4; relative to 0 uM KAM = 0): -0.01923
- IC50 (LIMK1; [1]): > 10 µM
- 0.001 uM KAM (LIMK1; relative to 0 uM KAM = 0): -0.03519
- 0.01 uM KAM (LIMK1; relative to 0 uM KAM = 0): -0.04768
- 0.1 uM KAM (LIMK1; relative to 0 uM KAM = 0): -0.0434
- 1 uM KAM (LIMK1; relative to 0 uM KAM = 0): 0.03552
- 10 uM KAM (LIMK1; relative to 0 uM KAM = 0): -0.3303
- median Log10 fold change (CHEK1; 0.001 uM KAM): -0.01146
- median Log10 fold change (CHEK1; 0.01 uM KAM): -0.009061
- median Log10 fold change (CHEK1; 0.1 uM KAM): -0.1025
- median Log10 fold change (CHEK1; 1 uM KAM): -0.2953
- median Log10 fold change (CHEK1; 10 uM KAM): -0.4632
- IC50 (CHEK1; [2]): 1.29 µM
- IC50 (ACVR2B; [1]): > 10 µM
- 0.001 uM KAM (ACVR2B; relative to 0 uM KAM = 0): 0.02766
- 0.01 uM KAM (ACVR2B; relative to 0 uM KAM = 0): -0.009918
- 0.1 uM KAM (ACVR2B; relative to 0 uM KAM = 0): -0.09138
- 1 uM KAM (ACVR2B; relative to 0 uM KAM = 0): -0.2794
- 10 uM KAM (ACVR2B; relative to 0 uM KAM = 0): -0.2958
- IC50 (KIT; [1]): > 10 µM
- 0.001 uM KAM (KIT; relative to 0 uM KAM = 0): -0.03484
- 0.01 uM KAM (KIT; relative to 0 uM KAM = 0): -0.02696
- 0.1 uM KAM (KIT; relative to 0 uM KAM = 0): -0.08182
- 1 uM KAM (KIT; relative to 0 uM KAM = 0): -0.1617
- 10 uM KAM (KIT; relative to 0 uM KAM = 0): -0.1565
- IC50 (CAMK2D; [1]): > 10 µM
- 0.001 uM KAM (CAMK2D; relative to 0 uM KAM = 0): -0.03504
- 0.01 uM KAM (CAMK2D; relative to 0 uM KAM = 0): 0.05262
- 0.1 uM KAM (CAMK2D; relative to 0 uM KAM = 0): 0.01424
- 1 uM KAM (CAMK2D; relative to 0 uM KAM = 0): -0.07545
- 10 uM KAM (CAMK2D; relative to 0 uM KAM = 0): -0.201
- median Log10 fold change (PTK2B; 0.001 uM KAM): -0.01732
- median Log10 fold change (PTK2B; 0.01 uM KAM): -0.009714
- median Log10 fold change (PTK2B; 0.1 uM KAM): -0.1905
- median Log10 fold change (PTK2B; 1 uM KAM): -0.4119
- median Log10 fold change (PTK2B; 10 uM KAM): -0.5329
- IC50 (PTK2B; [2]): 0.46 µM
